molecular target: DHODH (Homo sapiens (Human), UniProt Q02127); experiment: Measurement of DHODH inhibitory enzyme activity (coupled DCIP reduction assay); type: biochemical
From the text: Measurement of DHODH Inhibitory Enzyme Activity (In Vitro Assays)
The DHODH activity assay is a coupled enzyme assay in which oxidation of DHO and subsequent reduction of ubiquinone are stoichiometrically equivalent to the reduction of DCIP ([…]). The reduction of DCIP is accompanied by a loss of absorbance at 610 nm.
Reagents used: L-Dihydroorotic acid, Sigma, D7128, 2,6-Dichloroindophenol sodium salt hydrate, sigma, D1878 Dimethyl sulfoxide (DMSO), spectroscopic grade purchased from Spectrochem, cat no. 0704209, B. no.—3183650 Decylubiquinone, Sigma, D7911.
Preparation of Solutions/Reagents:
Buffer Preparation: 50 mM tris HCl, 150 mM KCl, and pH 8.0, 0.8% triton.
L-Dihydroorotic acid stock solution of 20 mM in buffer.
2, 6-Dichloroindophenol Sodium salt hydrate stock solution of 20 mM in buffer.
Decylubiquinone stock solution of 20 mM in buffer.
5 μL of Dimethyl sulfoxide or a compound of formula (I) in DMSO solution was added to the wells of a 96 well plate. Compounds of formula (I) were measured at 10 μM.
Protein along with buffer was added, so that the total volume including the DMSO was 87 μL. Compound and protein were incubated for half an hour at room temperature after mixing. 5 μL of 20 mM solution of L-Dihydroorotic acid, 5 μL of 2 mM solution of Decylubiquinone and 3 μL of 2 mM solution of 2, 6-Dichloroindophenol sodium salt hydrate were added to the above solution (total assay volume 100 μL). The mixture was stirred for 2 min and absorbance was recorded at every 10 min at 610 nanometers.
Percent inhibition is calculated as follows 100*{(Abs610 for reaction containing compound)−(Abs610 for positive control) (Abs610 for no enzyme reaction)−(Abs610 for positive control) Reaction containing compound has compound, buffer, enzyme and substrates Positive control contains DMSO, buffer, enzyme and substrates No Enzyme reaction contains DMSO, buffer and substrates IC50 determination: A 2 mM DMSO stock solution of the selected 1, 4, 6-trisubstituted-2-alkyl-1H-benzo[d]imidazole derivatives of formula (I) of the present invention to be examined was prepared. Subsequent ⅓rd dilutions were made as follows:
5 μL of each stock of compound of formula (I) (solution indicated in column 4 of table) was used for each 100 μL assay. Therefore, 5 μL of the 2 mM stock provided 100 μL of 100 μM solution of compound of formula (I), when made up with buffer, protein and substrate. See also: Ulrich et al. (2001) Eur. J. Biochem. 268, 1861-1868.

DHODH, sequence (Q02127 whole entry): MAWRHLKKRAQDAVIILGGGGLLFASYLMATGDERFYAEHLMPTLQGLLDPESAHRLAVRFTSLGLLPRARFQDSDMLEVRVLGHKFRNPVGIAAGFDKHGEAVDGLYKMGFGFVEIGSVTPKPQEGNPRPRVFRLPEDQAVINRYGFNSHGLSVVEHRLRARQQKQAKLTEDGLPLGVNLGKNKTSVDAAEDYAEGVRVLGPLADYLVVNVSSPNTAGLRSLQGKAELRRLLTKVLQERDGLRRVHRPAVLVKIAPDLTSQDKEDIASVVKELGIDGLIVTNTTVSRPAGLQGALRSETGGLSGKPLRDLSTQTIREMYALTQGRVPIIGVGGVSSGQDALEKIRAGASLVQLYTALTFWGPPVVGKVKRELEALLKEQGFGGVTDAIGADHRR

Structure (SMILES) | IC50
Cc1nc2c(C(=O)O)cc(-c3ccc(-c4c(C)cccc4C)cc3)cc2[nH]1 [Example 145, 6-(2',6'-dimethyl-[1,1'-biphenyl]-4-yl)-2-methyl-1H-benzo[d]imidazole-4-carboxylic acid] | 10 to 99 nM
COc1cccc(-c2ccc(-c3cc(C(=O)O)c4nc(C)[nH]c4c3)cc2)c1F [Example 21, 6-(2'-fluoro-3'-methoxy-[1,1'-biphenyl]-4-yl)-2-methyl-1H-benzo[d]imidazole-4-carboxylic acid] | 10 to 99 nM
Cc1nc2c(C(=O)O)cc(-c3ccc(-n4c(C)ccc4C)cc3)cc2[nH]1 [Example 111, 6-(4-(2,5-dimethyl-1H-pyrrol-1-yl)phenyl)-2-methyl-1H-benzo[d]imidazole-4-carboxylic acid] | 1 to 9.9 nM
Cc1nc2c(C(=O)O)cc(-c3ccc(-c4cccc(O)c4)cc3)cc2[nH]1 [Example 16, 6-(3'-hydroxy-[1,1'-biphenyl]-4-yl)-2-methyl-1H-benzo[d]imidazole-4-carboxylic acid] | 10 to 99 nM
Cc1nc2c(C(=O)O)cc(-c3ccc(-c4ccc(O)cc4)cc3)cc2[nH]1 [Example 20, 6-(4'-hydroxy-[1,1'-biphenyl]-4-yl)-2-methyl-1H-benzo[d]imidazole-4-carboxylic acid] | 10 to 99 nM
Cc1nc2c(C(=O)O)cc(-c3ccc(-c4ccccc4O)cc3)cc2[nH]1 [Example 23, 6-(2'-hydroxy-[1,1'-biphenyl]-4-yl)-2-methyl-1H-benzo[d]imidazole-4-carboxylic acid] | 10 to 99 nM
Cc1nc2c(C(=O)O)cc(-c3ccc(OCc4ccccc4)cc3)cc2[nH]1 [Example 69, 6-(4-(benzyloxy)phenyl)-2-methyl-1H-benzo[d]imidazole-4-carboxylic acid] | 1 to 9.9 nM
Cc1nc2c(C(=O)O)cc(-c3ccc(-c4ccccc4CN4CC[C@@H](F)C4)cc3)cc2[nH]1 [Example 117, (R)-6-(2'-((3-fluoropyrrolidin-1-yl)methyl)-[1,1'-biphenyl]-4-yl)-2-methyl-1H-benzo[d]imidazole-4-carboxylic acid.2,2,2-trifluoroacetic acid] | 1 to 9.9 nM
Cc1nc2c(C(=O)O)cc(-c3ccc(-c4ccccc4CN4CCOCC4)cc3)cc2[nH]1 [Example 45, 2-methyl-6-(2'-(morpholinomethyl)-[1,1'-biphenyl]-4-yl)-1H-benzo[d]imidazole-4-carboxylic acid.2,2,2-trifluoroacetic acid] | 10 to 99 nM
Cc1nc2c(C(=O)O)cc(-c3ccc(-c4cccc(OCc5ccccc5)c4)cc3)cc2[nH]1 [Example 15, 6-(3'-(benzyloxy)-[1,1'-biphenyl]-4-yl)-2-methyl-1H-benzo[d]imidazole-4-carboxylic acid] | 10 to 99 nM
Cc1nc2c(C(=O)O)cc(-c3ccc(-c4cccc(F)c4F)cc3)cc2[nH]1 [Example 4, 6-(2',3'-difluoro-[1,1'-biphenyl]-4-yl)-2-methyl-1H-benzo[d]imidazole-4-carboxylic acid] | > 100 nM
Cc1nc2c(C(=O)O)cc(-c3ccc(-c4ccccc4OCc4ccccc4)cc3)cc2[nH]1 [Example 17, 6-(2'-(benzyloxy)-[1,1'-biphenyl]-4-yl)-2-methyl-1H-benzo[d]imidazole-4-carboxylic acid] | 10 to 99 nM

The remaining lines, values ahead:

IC50 | Structure (SMILES)
1 to 9.9 nM | Cc1nc2c(C(=O)O)cc(-c3ccc(-c4ccccc4CN4CCCC4)cc3)cc2[nH]1 [Example 46, 2-methyl-6-(2'-(pyrrolidin-1-ylmethyl)-[1,1'-biphenyl]-4-yl)-1H-benzo[d]imidazole-4-carboxylic acid.2,2,2-trifluoroacetic acid]
1 to 9.9 nM | Cc1nc2c(C(=O)O)cc(-c3c(F)c(F)c(-c4ccc(CN5CCCCC5)cc4)c(F)c3F)cc2[nH]1 [Example 61, 2-methyl-6-(2,3,5,6-tetrafluoro-4'-(piperidin-1-ylmethyl)-[1,1'-biphenyl]-4-yl)-1H-benzo[d]imidazole-4-carboxylic acid.2,2,2-trifluoroacetic acid]
10 to 99 nM | Cc1nc2c(C(=O)O)cc(-c3c(F)c(F)c(-c4cccc(CNC(C)C)c4)c(F)c3F)cc2[nH]1 [Example 59, 2-methyl-6-(2,3,5,6-tetrafluoro-3'-((isopropylamino)methyl)-[1,1'-biphenyl]-4-yl)-1H-benzo[d]imidazole-4-carboxylic acid.2,2,2-trifluoroacetic acid]
1 to 9.9 nM | Cc1nc2c(C(=O)O)cc(-c3c(F)c(F)c(-c4ccccc4CN4CCCCC4)c(F)c3F)cc2[nH]1 [Example 53, 2-methyl-6-(2,3,5,6-tetrafluoro-2'-(piperidin-1-ylmethyl)-[1,1'-biphenyl]-4-yl)-1H-benzo[d]imidazole-4-carboxylic acid.2,2,2-trifluoroacetic acid]
1 to 9.9 nM | Cc1nc2c(C(=O)O)cc(-c3c(F)c(F)c(-n4c(C)ccc4C)c(F)c3F)cc2[nH]1 [Example 67, 6-(4-(2,5-dimethyl-1H-pyrrol-1-yl)-2,3,5,6-tetrafluorophenyl)-2-methyl-1H-benzo[d]imidazole-4-carboxylic acid]
1 to 9.9 nM | Cc1nc2c(C(=O)O)cc(-c3c(F)c(F)c(-c4cccc(CNC5CC5)c4)c(F)c3F)cc2[nH]1 [Example 60, 6-(3'-((cyclopropylamino)methyl)-2,3,5,6-tetrafluoro-[1,1'-biphenyl]-4-yl)-2-methyl-1H-benzo[d]imidazole-4-carboxylic acid.2,2,2-trifluoroacetic acid]
1 to 9.9 nM | Cc1nc2c(C(=O)O)cc(-c3ccc(-c4c(F)cccc4CN4CCCC4)cc3)cc2[nH]1 [Example 150, 6-(2'-fluoro-6'-(pyrrolidin-1-ylmethyl)-[1,1'-biphenyl]-4-yl)-2-methyl-1H-benzo[d]imidazole-4-carboxylic acid.2,2,2-trifluoroacetic acid]
10 to 99 nM | Cc1nc2c(C(=O)O)cc(-c3ccc(-c4ccccc4CN4CCCCC4)cc3)cc2[nH]1 [Example 42, 2-methyl-6-(2'-(piperidin-1-ylmethyl)-[1,1'-biphenyl]-4-yl)-1H-benzo[d]imidazole-4-carboxylic acid.2,2,2-trifluoroacetic acid]
1 to 9.9 nM | Cc1nc2c(C(=O)O)cc(-c3c(F)c(F)c(-c4cccc(CN5CCCCC5)c4)c(F)c3F)cc2[nH]1 [Example 56, 2-methyl-6-(2,3,5,6-tetrafluoro-3'-(piperidin-1-ylmethyl)-[1,1'-biphenyl]-4-yl)-1H-benzo[d]imidazole-4-carboxylic acid.2,2,2-trifluoroacetic acid]
1 to 9.9 nM | Cc1nc2c(C(=O)O)cc(-c3c(F)c(F)c(-c4ccc(CN5CCCC(F)(F)C5)cc4)c(F)c3F)cc2[nH]1 [Example 64, 6-(4'-((3,3-difluoropiperidin-1-yl)methyl)-2,3,5,6-tetrafluoro-[1,1'-biphenyl]-4-yl)-2-methyl-1H-benzo[d]imidazole-4-carboxylic acid.2,2,2-trifluoroacetic acid]
1 to 9.9 nM | Cc1nc2c(C(=O)O)cc(-c3c(F)c(F)c(-c4cccc(CO)c4)c(F)c3F)cc2[nH]1 [Example 57, 2-methyl-6-(2,3,5,6-tetrafluoro-3'-(hydroxymethyl)-[1,1'-biphenyl]-4-yl)-1H-benzo[d]imidazole-4-carboxylic acid.2,2,2-trifluoroacetic acid]
1 to 9.9 nM | Cc1nc2c(C(=O)O)cc(-c3c(F)c(F)c(-c4ccc(CN5CCS(=O)(=O)CC5)cc4)c(F)c3F)cc2[nH]1 [Example 65, 6-(4'-((1,1-dioxidothiomorpholino)methyl)-2,3,5,6-tetrafluoro-[1,1'-biphenyl]-4-yl)-2-methyl-1H-benzo[d]imidazole-4-carboxylic acid.2,2,2-trifluoroacetic acid]
10 to 99 nM | Cc1nc2c(C(=O)O)cc(-c3ccc(-c4cccc(CN5CCS(=O)(=O)CC5)c4)cc3)cc2[nH]1 [Example 36, 6-(3'-((1,1-dioxidothiomorpholino)methyl)-[1,1'-biphenyl]-4-yl)-2-methyl-1H-benzo[d]imidazole-4-carboxylic acid.2,2,2-trifluoroacetic acid]
10 to 99 nM | Cc1nc2c(C(=O)O)cc(-c3c(F)c(F)c(-c4ccc(CN5CCCC5)cc4)c(F)c3F)cc2[nH]1 [Example 62, 2-methyl-6-(2,3,5,6-tetrafluoro-4'-(pyrrolidin-1-ylmethyl)-[1,1'-biphenyl]-4-yl)-1H-benzo[d]imidazole-4-carboxylic acid.2,2,2-trifluoroacetic acid]
1 to 9.9 nM | Cc1nc2c(C(=O)O)cc(-c3c(F)c(F)c(-c4ccccc4)c(F)c3F)cc2[nH]1 [Example 52, 2-methyl-6-(2,3,5,6-tetrafluoro-[1,1'-biphenyl]-4-yl)-1H-benzo[d]imidazole-4-carboxylic acid]
